US8617583B2, “Alpha adrenergic receptor agonists for prevention or treatment of a hematoma, edema, and/or deep vein thrombosis” (Warsaw Orthopedic, Inc., priority 2009, dated 2013)

Test system: Rat Chronic Constriction Injury Model
Details: 0.02 mg/kg/day subcutaneously
Method: A 2-month chronic constriction injury (CCI) model of neuropathic pain was used to evaluate different formulations of a clonidine, encapsulated in bioerodable polymers compared to fluocinolone given subcutaneously (SC). Different formulations as provided in Table 5 below were evaluated for reducing pain-associated behaviors: Thermal paw withdrawal latency was evaluated at baseline 7, 14, 21, 28, 35, 42, 49, 56 and […] mechanical threshold was evaluated at 8, 15, 22, 29, 36, 43, 50, 57 and 64 days post-operatively.
The inventor evaluated the efficacy of a five Month Clonidine/Polyrner Drug Depot in the Rat Chronic Constriction Injury Model. The animal model was the Bennett Model (Wistar rat). The purpose: To determine whether a five month polymer clonidine-eluting depot can improve pain associated behavioral responses in a rat model of neuropathic pain.
Experimental Design: Four loose chromic gut ligatures, 1 mm apart, were tied around the common sciatic nerve at mid-thigh. Each animal received treatment of test or control article-according to the dosing described in Table 5.
The inventor has conducted the present study for a period of 64 days and have employed the following two tests: (1) the Hargreaves test; and (2) the von Frey test. The Hargreaves Tests of Thermal Hyperalgesia were conducted on days 7, 14, 21, 28, 35, 42, 49, 56 and 63. […]

Clc1cccc(Cl)c1N=C1NCCN1 [clonidine, 2,6-dichloro-N-2-imidazolidinyldenebenzenamine]
pain behavioral response (measured as a percentage of baseline) for thermal hyperalgesia (FIG. 3, vs unloaded polymer depots 45%): 58% | pain behavioral response (percentage of baseline) for mechanical allodynia, in words (FIG. 4, compared to unloaded polymer depots): reduced the behavioral response
